Measured values taken from patent US20090208462A1, “Methods of Treatment” (IMPERIAL INNOVATIONS LIMITED, priority 2004, published 2009).
“Also recorded” adds a separate entry of the source.

Columns and labels:
[1] = test system: melanopsin transduction cascade; assay: Properties of the melanopsin transduction cascade: drug effects on light evoked current; assay type: cell-based, mouse; conditions: for effect on light induced current / effect on light evoked current / effect on photoresponses: 420 nm 10 sec; for effect on light induced current / effect on light evoked current / effect on photoresponses / effect on light evoked currents: 9-cis retinal 20 μM; for effect on light evoked currents: 420 nm 10 sec 8×10^14 photons/cm^2/s
Method: (§1) Mouse Neuro-2a cells (American Type Culture Collection; Cat no. CCL-131) were maintained at 37° C. in D-MEM, Dulbecco's Modified Eagle Medium with GlutaMAX™ I, 4500 mg/l D-Glucose, Sodium Pyruvate (D-MEM, Invitrogen) with 10% foetal bovine serum, 1% non-essential amino acids and 20 μg/ml gentomycin in a 5% CO2 atmosphere. Cells were trypsintsed, split and cultured at 1×10^5/ml in 90 mm dishes for 24 hours prior to transfection with plasmid vectors using lipofectamine (Invitrogen) in serum-free medium. DNA to lipid ratio was 10 μg DNA: 100 μg lipid. After transfection serum free medium was replaced with normal medium. On the following day, 2-3 days before study, cell differentiation was induced using 10 μM retinoic acid (Provencio et al., 2000). Starting from this point cells were kept in darkness. On the day of recording, glass coverslips serving as a substrate for cell attachment were transferred to the recording chamber. The perfusion solution contained 140 mM NaCl, […], 1 mM MgCl2, 2 mM CaCl2, 5 mM glucose, 10 mM HEPES (pH 7.3-7.4; 24° C.). Successfully transfected cells were identified by EGFP fluorescence under a 480 nm stimulus light using an OLYMPUS BX51WI microscope. At this point, retinal isoforms (20 μM; 9-cis and all-trans from Sigma-Aldrich; 11-cis from Dr R K Crouch, Medical University of S.C.) were added to the perfusion solution as necessary and cells kept in the dark for at least 1 hour before recording. Whole-cell patch-clamp recordings were made with pipettes containing 140 mM KCl, 10 mM NaCl, 1 mM MgCl2, 10 mM HEPES, 10 mM EGTA. Osmolarity was adjusted to 285±5 mosmol (milliosmol) 1^−1 and pH to 7.3-7.4 with KOH. Open pipette resistance was 2-5 MΩ (mega-ohms), and access resistance during recordings was <20 MΩ. Currents were recorded (Axopatch 200B, Axon Instruments) in neurons voltage clamped at holding potentials of −50 mV (milli-volt). The records were filtered at 1 kHz (kilohertz) and sampled at 20 kHz. Drugs were obtained from Sigma Aldrich, with the exception of NEM (N-ethylmaledomide) (Calbiochem), and DL-AP5, NF023, KT5720, U73122 and thapsigargin (all Tocris Cookson), drugs applied in superfusion were applied for 15-20 minutes prior to light stimulation.
(§2) Light stimuli were generated using a Cairn Optoscan Xenon arc source comprising a slit monochromator. Unless otherwise stated al stimuli were 10 sec in duration with a 20 nm half-bandwidth. Irradiance was measured using an optical powermeter (Macam Photometrics) and converted to photon flux. […] The nature of glutamate receptor expression in Neuro-2a cells remains ambiguous, nonetheless we excluded the possibility that this might be the origin of the melanopsin light response by application of the selective NMDA antagonist APV (2-amino-5-phosphonovaleric acid) (100 μM) which had no effect upon the light sensitive current (data not shown)

human melanopsin = target: T1, human melanopsin (Homo sapiens, UniProt Q9UHM6); assay: Retinaldehyde dependence of the light evoked current in melanopsin expressing cells; assay type: cell-based; conditions: for light-induced response to 540 nm stimulation itself: 20 nm half-bandwidth; for light evoked peak inward current after retinal preloading / change in 420 nm light evoked current after 540 nm light exposure: retinal 20 μM; for light evoked peak inward current after retinal preloading: 1 hour, 420 nm, 8×10^14 photons/cm^2/sec; for change in 420 nm light evoked current after 540 nm light exposure: 540 nm 10 mins (2×10^14 photons/cm^2/s), retest 420 nm 10 sec
T1 construct: expressed in transfected cells; host or cells: Mouse Neuro-2a cells (ATCC CCL-131), lipofectamine transfection with the pCMS-EGFP-based melanopsin vector, differentiated with retinoic acid
T1 sequence (Q9UHM6 1-478): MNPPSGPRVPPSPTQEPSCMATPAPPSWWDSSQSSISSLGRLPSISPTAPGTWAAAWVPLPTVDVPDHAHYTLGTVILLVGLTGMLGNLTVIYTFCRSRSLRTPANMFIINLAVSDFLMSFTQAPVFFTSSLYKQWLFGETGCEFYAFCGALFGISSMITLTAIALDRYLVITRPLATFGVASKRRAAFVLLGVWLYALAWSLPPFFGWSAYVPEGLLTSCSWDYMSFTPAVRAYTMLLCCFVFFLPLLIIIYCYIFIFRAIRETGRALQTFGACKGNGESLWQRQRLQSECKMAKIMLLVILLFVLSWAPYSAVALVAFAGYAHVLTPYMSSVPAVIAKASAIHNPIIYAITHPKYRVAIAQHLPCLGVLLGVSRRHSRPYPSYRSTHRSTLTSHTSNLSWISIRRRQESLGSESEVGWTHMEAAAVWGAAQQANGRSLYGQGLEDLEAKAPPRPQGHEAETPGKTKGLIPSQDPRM
Method: as §1, §2

Neuro-2a cells [2] = assay: Whole cell recordings of light evoked current in Neuro-2a cells expressing human melanopsin; assay type: cell-based, mouse
Excerpt: The full length coding sequence of human melanopsin was amplified from retinal cDNA using Pfu-Turbo DNA polymerase (Stratagene) and the following restriction tagged primers: […]
The product was cloned into the pLITMUS28 Vector (New England Biolabs) and sequenced to confirm that there was no deviation from the reported sequence NM_033282; SEQ ID NO: 1). The product was subsequently cloned into the pCMS-EGFP vector (BD Biosciences), such that expression would be driven by the CMV immediate early promoter. A C-terminal 6×His-tagged melanopsin construct was generated in a similar manner, using the following primers: […]
as §1, §2

Neuro-2a cells [3] = assay: Spectral sensitivity of the light evoked current (pCI-neo human melanopsin); assay type: cell-based, mouse; conditions: 11-cis retinal, mean±SEM
Method: For analyses of spectral sensitivity EGFP expression was excluded by employing the pCI-neo mammalian expression vector (Promega).
as §1, §2
In order to assess the correspondence, if any, between the Neuro-2a light response and these action spectra we assessed cellular responses to stimuli ranging from 300 to 540 nm in cells transfected with a pCI-neo expression vector (Promega) driving human melanopsin. EGFP was not included as a marker of expression for these experiments because of its light absorbing and fluorescent properties. […]

## NC(CCCP(=O)(O)O)C(=O)O (racemic) [APV, 2-amino-5-phosphonovaleric acid]
[1]; 100 μM, data not shown
  effect upon the light sensitive current: no effect

## Nc1nc2c(nc(Br)n2[C@@H]2O[C@@H]3COP(=O)(O)O[C@H]3[C@H]2O)c(=O)[nH]1 [8-Br-cGMP]
[1]; 1 mM in pipette
  effect on light response: abolished
[1]; in patch pipette, 100 μM and 1 nM
  effect on light induced current: dose dependent suppression

## CC1=C(/C=C/C(C)=C\C=C\C(C)=C\C=O)C(C)(C)CCC1 [9-cis retinal]
Human melanopsin
  light-induced response to 540 nm stimulation itself: did not in itself evoke
  light evoked peak inward current after retinal preloading: Significant photosensitivity
  change in 420 nm light evoked current after 540 nm light exposure: only a small potentiation
Human melanopsin; listed as 9-cis-retinal
  light evoked peak inward current after retinal preloading: more responsive

## CC1=C(/C=C/C(C)=C/C=C/C(C)=C/C=O)C(C)(C)CCC1 [11-cis retinal]
Human melanopsin
  light evoked peak inward current after retinal preloading: Significant photosensitivity; also recorded: significantly more effective
Human melanopsin; listed as 11-cis-retinal
  light evoked peak inward current after retinal preloading: more responsive

## [Cd+2] [Cd^2+]
[1]; 100 μM, and/or removal of calcium from perfusate
  effect on light evoked current: little significant effect

## Nc1nc2c(ncn2[C@@H]2O[C@H](COP(=O)(O)OP(=O)(O)OP(O)(O)=S)[C@@H](O)[C@H]2O)c(=O)[nH]1 [GTPγS]
[1]; 1 mM in patch pipette
  effect on photoresponses: largely abolished; also recorded: abolish

## CCCCCCOC(=O)[C@]1(O)C[C@@H]2O[C@@]1(C)n1c3ccccc3c3c4c(c5c6ccccc6n2c5c31)C(=O)NC4 [KT5720]
[1]; 1 μM
  effect on light induced current: did not affect

## CCN1C(=O)C=CC1=O [NEM, N-ethylmaledomide]
[1]; 50 μM in bath
  effect on light evoked currents: no effect
[1]; 50 μM in bath, listed as N-ethyl
  effect on light evoked currents: did not antagonise

## O=C(Nc1cccc(C(=O)Nc2ccc(S(=O)(=O)O)c3cc(S(=O)(=O)O)cc(S(=O)(=O)O)c23)c1)Nc1cccc(C(=O)Nc2ccc(S(=O)(=O)O)c3cc(S(=O)(=O)O)cc(S(=O)(=O)O)c23)c1 [NF023]
[1]; up to 1 μM in bath
  effect on light evoked currents: no effect; also recorded: did not antagonise

## Cn1cc(C2=C(c3cn(CCCSC(=N)N)c4ccccc34)C(=O)NC2=O)c2ccccc21 [RO31-8220]
[1]; 100 nM
  effect on light induced current: did not affect

## COc1ccc2c(c1)CC[C@@H]1[C@@H]2CC[C@]2(C)[C@@H](NCCCCCCN3C(=O)C=CC3=O)CC[C@@H]12 [U73122]
[1]; 50 μM
  effect on light induced current: did not affect; also recorded: did not block

## CC1=C(/C=C/C(C)=C/C=C/C(C)=C/C=O)C(C)(C)CCC1 [all-trans retinal]
Human melanopsin
  light-induced response to 540 nm stimulation itself: did not in itself evoke
  light evoked peak inward current after retinal preloading: modest light response
  change in 420 nm light evoked current after 540 nm light exposure: large increase; also recorded: three-fold increase

## Cc1ccc(C(=O)Nc2ccc(S(=O)(=O)O)c3cc(S(=O)(=O)O)cc(S(=O)(=O)O)c23)cc1NC(=O)c1cccc(NC(=O)Nc2cccc(C(=O)Nc3cc(C(=O)Nc4ccc(S(=O)(=O)O)c5cc(S(=O)(=O)O)cc(S(=O)(=O)O)c45)ccc3C)c2)c1 [suramin]
[1]; 100 μM in bath
  effect on photoresponses: largely abolished; also recorded: abolish

## C/C=C(/C)C(=O)O[C@H]1C(C)=C2[C@H]([C@@H]1OC(=O)CCCCCCC)[C@@](C)(OC(C)=O)C[C@H](OC(=O)CCC)[C@@]1(O)[C@H]2OC(=O)[C@@]1(C)O [thapsigargin]
[1]; 5 to 10 μM in zero calcium perfusates for 15-20 mins
  effect on light evoked current: abolished

B1: human melanopsin: opsin photoactivator, SEQ ID NO:2, expressed from CMV-driven plasmid vector in Neuro-2a cells (protein, listed as Homo sapiens)
chain: MNSGRVSTSCMATASWWDSSSSSSGRSSTAGTWAAAWVTVDVDHAHYTGTVVGTGMGNTVYTCRSRSRTANMNAVSDMSTAVTSSYKWGTGCYACGAGSSMTTAADRYVTRATGVASKRRAAVGVWYAAWSGWSAYVGTSCSWDYMSTAVRAYTMCCVYCYRARTGRATGACKGNGSWRRSCKMAKMVVSWAYSAVAVAAGYAHVTYMSSVAVAKASAHNYATHKYRVAAHCGVGVSRRHSRYSYRSTHRSTTSHTSNSWSRRRSGSSVGWTHMAAAVWGAAANGRSYGGDAKARGHATGKTKGSDRM
modifications: Human melanopsin
Neuro-2a cells [2]; 420 nm, 10 sec, 8×10^13 or 8×10^14 photons/cm^2/sec, whole cell recording
  light evoked current, intensity dependence: intensity dependent sustained inward current
Neuro-2a cells [2]; Neuro-2a cells expressing human melanopsin, 9-cis retinal 20 μM, 1 hour, 420 nm, 10 sec stimulus
  cellular response to light exposure: marked cellular response
Neuro-2a cells [2]; absence of exogenous retinal
  light sensitivity: not light sensitive
Neuro-2a cells [2]; light-activated current, Neuro-2a cells
  reversal potential of the response: 0 to −10 mV
Neuro-2a cells [2]; voltage ramp −100 to +100 mV, linear between −100 and −50 mV, 9-cis retinal, mean±SEM, n=13
  peak light evoked slope conductance: 6.46±0.82 nS
Neuro-2a cells [3]; 360 nm, 3×10^14 photons/cm^2/s
  light evoked current: 72.5±19 pA
Neuro-2a cells [3]; 420 nm, 8×10^14 photons/cm^2/s
  light evoked current: 80±11 pA
Neuro-2a cells [3]; 440 nm, 2×10^15 photons/cm^2/s
  light evoked current: 32.7±14 pA
Neuro-2a cells [3]; 490 nm
  light evoked current: 8.5±1.2 pA
Neuro-2a cells [3]; 540 nm, 2×10^14 photons/cm^2/s
  light evoked current: 2.0±1.2 pA
